Measurements published in patent publication US20080045463A1, “Methods For Lowering Hif-1 Mediated Gene Expression” (priority 2004, published 2008).
Entries after “also recorded” stand apart in the source; their conditions may differ. Where a SMILES comes first, the peptide text is derived from it. The star is where a group is joined. Cbz = O=C(OCc1ccccc1)*

Legend:
HPH = test: 2-Oxoglutarate: HPH binding assay; design: species or system human; details: competitor 10 mM
Description: Gel was washed four times with the indicated buffer. Analysis of HPH binding was measured by scintillation counting.

[1] = system: labile intracellular iron pool; test: Calcein fluorescence assay for cellular free iron; type: cell-based, human; details: calcein loaded U251 cells
Description: The ability of 2-oxoacids to chelate the labile intracellular iron pool was measured using the calcein fluorescence assay as previously described. The iron chelators desferrioxamine and bipyridyl were used as positive controls.

HIF-1α [2] = test: HIF-1α accumulation in 22B head and neck cancer cells; type: cell-based, human; details: 22B cells, 100 μM each, last 30 minutes after 24 hours accumulation
Description: (§1) Human U87, U251, U251-HRE (20) and U373 glioma cells were cultured in Eagle's MEM medium (Mediatech). DU145 human prostate cancer cells and 022 human head and neck cancer cells were cultured in RPMI 1640 medium (Sigma). 22B Human head and neck cancer cells were cultured in high glucose DMEM (Gibco) containing 2 mM glutamine. C6 ODD-GFP rat glioma cells were cultured in high glucose DMEM with 1.5 mg/ml G418. All culture media were supplemented with 10% fetal bovine serum and 1% (v/v) penicillin/streptomycin. Rat C6 glioma cells were cultured in high glucose DMEM. For cell hypoxia treatment, the culture dishes were sealed in a modular incubator chamber, flushed with gas containing 1% O2, 5% CO2 and 94% N2 for 5 minutes, and incubated in this environment at 37° C. for indicated times.
(§2) Protein extraction, western blot analysis, and immunocytochemistry were performed as previously described. Mouse monoclonal anti-HIF-1α antibodies were 610958 (BD Biosciences), and NB100-123 (Novus). Mouse monoclonal anti-GFP antibody was 1814460 (Roche). Mouse monoclonal anti-β-actin antibody was ab6276-100 (Abcam). Dimethyloxalylglycine was D1070 (Frontier Scientific). All other chemicals were from Sigma. Antibodies recognizing HPH homologues were from Novus biologicals and the antisera recognizing […] of HIF-1α was kindly provided by R. Freeman.

HIF-1α [3] = test: HIF-1α decay after washout of inducer; type: cell-based, human
Description: as §1, §2
To test this U251 cells was exposed to glucose-free Krebs buffer to either hypoxia (1% O2) or 2 mM pyruvate for four hours. Nuclear HIF-1α protein accumulation was induced by both treatments (FIG. 6A). […] HIF-1α immunoreactivity disappeared rapidly upon reoxygenation (return to 21% O2) of hypoxic cells as would be expected with the resumption of oxygen-dependent HIF-1α hydroxylation and proteolysis. […] To directly determine if the HPH activity in glioma cells was reversibly inactivated by pyruvate and oxaloacetate the ^35S-pVHL pulldown assay to measure HPH activity in extracts from cells treated for four hours with the 2-oxoacids was used. To capture the endogenous state of HPH activity, the cell extracts were first assayed without supplementation with exogenous reductants, ascorbate, or iron. […] The minimal HPH activity of extracts from pyruvate or oxaloacetate treated cells could also be restored by supplementation of the extracts with ascorbate or with exogenous ferrous iron (FeSO4) during the assay (FIG. 6D).

HIF-1α [4] = test: Nuclear HIF-1α accumulation in human cancer cell lines (western blot); type: cell-based; details: for inhibition of HIF-1α accumulation, L- vs D-isomers and dimer: U87, four hours, glucose-free Krebs, 1 mM pyruvate or oxaloacetate, 250 μM (FIG. 3C); for HIF-1α accumulation induced by oxidant: U251 cells; for HIF-1α accumulation induced by oxidant / HIF-1α accumulation induced by metabolite: four hours; for HIF-1α accumulation induced by metabolite: substituted for glucose in Krebs buffer, normoxia; for dose inducing HIF-1α (doses as low as): culture times longer than 8 h; for threshold dose for inducing HIF-1α accumulation: four hours period of cell culture
Description: as §1, with “DU145 human prostate cancer cells and 022 human head and neck cancer cells were cultured in RPMI 1640 medium (Sigma).” left out
Protein extraction, western blot analysis, and immunocytochemistry were performed as previously described. […] Mouse monoclonal anti-β-actin antibody was ab6276-100 (Abcam). Dimethyloxalylglycine was D1070 (Frontier Scientific). All other chemicals were from Sigma.

HIF-1α [5] = test: HIF-1α hydroxyproline detection in U251 whole cell extracts; type: cell-based, human; details: U251, four hours, antibody to hydroxylated ODD region
Description: as §2
Some reactive oxygen species can also induce HIF-1α. […] Next, attention was focused on HIF-1α proline hydroxylation as a target for 2-oxoacids.

HIF-1 = HIF-1 luciferase reporter assay in U251-HRE cells; type: cell-based, human; details: 8 h
ODD-GFP = test: Live cell assay for oxygen-dependent degradation, ODD-GFP transfected C6 glioma cells; type: cell-based, rat; details: C6 cells in Krebs buffer, 24 hours
Description: as §1
Next a live cell assay for oxygen-dependent HIF-1α degradation using C6 rat glioma cells that had been stably transfected with a vector encoding the HIF-1 cc ODD region fused to GFP (ODD-GFP) was performed. The ODD-GFP protein is hydroxylated and degraded in an oxygen dependent manner similar to HIF-1α. As with HIF-1α, a basal, as well as, hypoxia-inducible accumulation of ODD-GFP has been reported.

HPH1, HPH2, and HPH3 = test: HPH prolyl hydroxylation assay with in vitro translated HPHs (35S-pVHL pulldown); type: biochemical, human; details: in the absence of ascorbate or other reducing agents
Description: Human HPH-1,2,3 and VHL pcDNA3.1/V5-HIS vectors (kindly provided by R. Bruick) were used for TNT Coupled Reticulocyte Lysate in vitro transcription/translation (Promega). Cytoplasmic extract for HPH activity was made by lysing cell pellets in assay buffer (20 mM Tris, pH 7.5, 5 mM KCl, 1.5 mM MgCl2, and 1 mM DTT) at 4° C. using a homogenizer, centrifuging at 20,000 g for 15 minutes and collecting supernatant for the assay. HPH enzymatic reactions were performed as previously described using either IVT products or cell extracts. This assay, chosen for its specificity for the HPH reaction, was linear over 30 minutes. For each reaction, either 7.5 μL of IVT products or 100 μg of cell extract protein were used as source of the enzyme. Activity was measured by either quantitative scintillation counting or by autoradiography after gel electrophoresis on a 10-20% Tris Glycine gradient gel (Invitrogen).
To determine whether HPH activity was directly modulated by pyruvate or oxaloacetate, Pro564 hydroxylation in a biotinylated HIF-1α ODD peptide by in vitro translated HPH1, HPH2, and HPH3 was examined. The ability of streptavidin beads to pull down ^35S-pVHL bound to the biotinylated peptide was used as evidence of HIF-1α ODD peptide hydroxylation. This is the most specific and sensitive assay for HPH activity. […] Such assays can also give high background values in cell extracts.

VEGF and GLUT3 = test: RT-PCR of HIF-1 regulated genes in U87 cells; type: cell-based, human; details: U87, 5× the level normally found in MEM, 2 d
Description: Total RNA was isolated using the RNeasy kit (Qiagen). For RT-PCR, 1 μg of total RNA was used with the […] One-Step System (Invitrogen). VEGF, GLUT3, and β-Actin primers were described previously. For quantitative PCR analysis, the iQ SY BR Green Supermix and MyiQ Single-Color

Structure (SMILES): O=C(O)CCC(=O)C(=O)O [2-OG, 2-oxoglutarate]
- displacement of iron dependent binding of 35S-HPHs to immobilized 2-OG (HPH): readily displaced

Structure (SMILES): CC(=O)N(O)CCCCCNC(=O)CCC(=O)N(O)CCCCCNC(=O)CCC(=O)N(O)CCCCCN [DFO, desferrioxamine]
- intracellular calcein fluorescence [1]: increase in fluorescence

Structure (SMILES): [Fe+3] [Fe(III)]
- accumulated (pyruvate-enhanced) HIF-1α after supplementation (HIF-1α [2]): Fe(II)>Fe(III)
- accumulated (pyruvate-enhanced) HIF-1α after supplementation (HIF-1α [2]; listed as ferric iron): diminished to a greater extent by ferrous iron than by ferric iron
- HIF-1α decay following induction with pyruvate or oxaloacetate, iron in wash (HIF-1α [3]; 100 μM each): not Fe(III)
- decay of NO-induced HIF-1α with iron in wash (HIF-1α [3]; 100 μM each): not Fe(III)
- decay of accumulated HIF-1α after washing out DFO, iron added (HIF-1α [3]; 100 μM each): not Fe(III)

Structure (SMILES): N[C@@H](CCC(=O)N[C@@H](CS)C(=O)NCC(=O)O)C(=O)O [GSH, glutathione]
- HIF-1α accumulation by hypoxia or the iron chelator DFO (HIF-1α [4]; FIG. 3C, 1% O2 or 150 μM DFO): not by hypoxia or DFO
- inhibition of HIF-1α accumulation, L- vs D-isomers and dimer (HIF-1α [4]): selectively inhibited
- NO induced HIF-1α accumulation (HIF-1α [4]; U251, MEM, DETA-NO 300 μM, ascorbate 100 μM, Fe(II) 100 μM, GSH 5 mM): complete inhibition
- HIF-1α decay with agent added to the wash (HIF-1α [3]; U87 after pyruvate or oxaloacetate, 100 μM ascorbate, 5 mM GSH or MEM amino acid mixture): HIF-1α decay was rapidly resumed

Structure (SMILES): OO [H2O2]
- HIF-1α accumulation induced by oxidant (HIF-1α [4]): induce HIF-1α accumulation

Structure (SMILES): CC(C)C[C@@H](C=O)NC(=O)[C@H](CC(C)C)NC(=O)[C@H](CC(C)C)NC(=O)OCc1ccccc1 [MG132] (Cbz-Leu-Leu-Leu-aldehyde)
- hydroxyproline (Pro564) in induced HIF-1α (HIF-1α [5]): hydroxyproline was detected

Structure (SMILES): NCCN(CCN)[N+]([O-])=NO [NO]
- HIF-1α accumulation induced by oxidant (HIF-1α [4]): induce HIF-1α accumulation
- HIF-1α decay after washing of NO treated cells (HIF-1α [3]; extensive washing with MEM): sluggish HIF-1α decay

Structure (SMILES): O=C(O)CCC(=O)O [Succinate]
- HIF-1α accumulation induced by metabolite (HIF-1α [4]): unable to induce HIF-1α accumulation
- HIF-1α accumulation induced by metabolite (HIF-1α [4]; listed as succinate): did not find a significant effect
- induction of HIF-1 regulated reporter gene (HRE-luciferase) (HIF-1): did not find a significant effect
- stimulation of basal ODD-GFP accumulation (ODD-GFP): not by succinate; also recorded: did not find a significant effect
- displacement of iron dependent binding of 35S-HPHs to immobilized 2-OG (HPH): not by succinate; also recorded: did not find a significant effect

Structure (SMILES): CC(=O)CC(=O)O [acetoacetate]
- HIF-1α accumulation induced by metabolite (HIF-1α [4]): unable to induce HIF-1α accumulation

Structure (SMILES): C[C@H](N)C(=O)O [alanine]
- HIF-1α accumulation induced by metabolite (HIF-1α [4]): unable to induce HIF-1α accumulation

Structure (SMILES): c1ccc(-c2ccccn2)nc1 [bipyridyl]
- intracellular calcein fluorescence [1]: increase in fluorescence

Structure (SMILES): N[C@@H](CSSC[C@H](N)C(=O)O)C(=O)O [cystine]
- inhibition of HIF-1α accumulation, L- vs D-isomers and dimer (HIF-1α [4]): effective

Structure (SMILES): CCOC(=O)C(C)=O [ethyl esters of pyruvate, ethyl-pyruvate]
- HIF-1α accumulation induced by metabolite (HIF-1α [4]): effective

Structure (SMILES): O=C(O)C(=O)CF [fluoropyruvate]
- HIF-1α accumulation induced by metabolite (HIF-1α [4]): not able to induce HIF-1α accumulation

Structure (SMILES): O=C(O)/C=C/C(=O)O [fumarate]
- HIF-1α accumulation induced by metabolite (HIF-1α [4]): unable to induce HIF-1α accumulation; also recorded: did not find a significant effect
- induction of HIF-1 regulated reporter gene (HRE-luciferase) (HIF-1): did not find a significant effect
- stimulation of basal ODD-GFP accumulation (ODD-GFP): did not find a significant effect
- displacement of iron dependent binding of 35S-HPHs to immobilized 2-OG (HPH): did not find a significant effect

Structure (SMILES): NC(=O)CC[C@H](N)C(=O)O [glutamine]
- basal HIF-1α accumulation (HIF-1α [4]; U251 cells switched to Krebs buffer for 4 hours, 10 mM glutamine): no basal HIF-1α accumulation

Structure (SMILES): N[C@@H](Cc1c[nH]cn1)C(=O)O [histidine]
- stimulation of HIF-1α ODD hydroxylation (HPH1, HPH2, and HPH3): dose dependently stimulate HIF-1α ODD hydroxylation
- basal expression of the HIF-1 regulated genes VEGF and GLUT3 (VEGF and GLUT3): lowered the basal expression

Structure (SMILES): O=C(O)C(=O)C(=O)O [ketomalonate]
- HIF-1α accumulation induced by metabolite (HIF-1α [4]): did not induce HIF-1α accumulation

Structure (SMILES): O=C(O)CC(O)C(=O)O (stereo not shown) [malate]
- HIF-1α accumulation induced by metabolite (HIF-1α [4]): unable to induce HIF-1α accumulation

Structure (SMILES): O=C(O)CC(=O)C(=O)O [oxaloacetate]
- dose inducing HIF-1α (doses as low as) (HIF-1α [4]): 100 µM
- threshold dose for inducing HIF-1α accumulation (HIF-1α [4]): about 300 μM

Structure (SMILES): CC(=O)C=O [pyruvaldehyde]
- HIF-1α accumulation induced by metabolite (HIF-1α [4]): unable to induce HIF-1α accumulation

Structure (SMILES): CC(=O)C(=O)O [pyruvate]
- dose inducing HIF-1α (doses as low as) (HIF-1α [4]): 100 µM
- threshold dose for inducing HIF-1α accumulation (HIF-1α [4]): about 300 μM

Structure (SMILES): CC[C@H](C)C(=O)C(=O)O [α-keto-β-methylvalerate]
- HIF-1α accumulation induced by metabolite (HIF-1α [4]): active in some but not all cell lines

Structure (SMILES): O=C(O)CCCC(=O)C(=O)O [α-ketoadipate]
- HIF-1α accumulation induced by metabolite (HIF-1α [4]): did not induce HIF-1α accumulation

Structure (SMILES): CCC(=O)C(=O)O [α-ketobutyrate]
- HIF-1α accumulation induced by metabolite (HIF-1α [4]): did not induce HIF-1α accumulation

Structure (SMILES): CC(C)CC(=O)C(=O)O [α-ketoisocaproate]
- HIF-1α accumulation induced by metabolite (HIF-1α [4]): active in some but not all cell lines

Structure (SMILES): CC(C)C(=O)C(=O)O [α-ketoisovalerate]
- HIF-1α accumulation induced by metabolite (HIF-1α [4]): minor activity

Structure (SMILES): CC(O)CC(=O)O (stereo not drawn) [β-hydroxybutyrate]
- HIF-1α accumulation induced by metabolite (HIF-1α [4]): unable to induce HIF-1α accumulation
